Six compounds from patent US5679695A, “Aryl and heteroaryl compounds having anti-retrovirus activity” (The University of Connecticut, priority 1995, dated 1997) can be followed below.

The subject of series [1] is HIV. Nature of the series: Anti-HIV activity in MT-2. Format: cell-based. An excerpt:
(§1) Obviously, there is a structure activity relationship with respect to the efficacy of the compounds of the present invention. Factors that affect the relationship may include steric effects, electronic effects, (electron withdrawing or electron donating ability), resonance effects, hydrophobic,hydrophilic, hydrogen bonding parameters, etc. […] Based on the data, it has been determined that there is a direct correlation between the log (EC50)^-1 and the electronic effect of a substituent (a) or more precisely the sum of the sigma (σ) values. (The greater the electron withdrawing ability of a substituent, the higher the value of σ, while a better electron donating group has a lower value of σ.) There appears to be a direct correlation between log (EC50)^-1 and the Σσ; as the Σσ increases, so does the log (EC50)^-1. The addition of substituents to the diphenyl sulfone will affect the factors discussed hereinabove, thus both the log (EC50)^-1 and the Σσ will be affected. Thus for the diphenyl sulfone derivative [drawing 25] the relation is […]

Another series concerns HIV-1. Nature of the series: XTT assay of protection from HIV-1 cytopathic effect, infected, CEM-IW. Format: cell-based, Human Immunodeficiency Virus. On the procedure: (§2) Another assay for testing the efficacy of the compounds is the procedure* used in the National Cancer Institute's test for agents active against Human Immunodeficiency Virus (HIV). It is designed to detect agents acting at any stage of the virus reproductive cycle. The assay basically involves the killing of T4 lymphocytes by HIV. Small amounts of HIV are added to cells, and a complete cycle of virus reproduction is necessary to obtain the required cell killing. Agents that interact with virions, cells, or virus gene-products to interfere with viral activities will protect cells from cytolysis. The system is automated in several features to accommodate large numbers of candidate agents and is generally designed to detect anti-HIV activity. However, compounds that degenerate, or are rapidly metabolized in the culture conditions may not show activity in this screen. All tests are compared with at least one positive (e.g., AZT-treated) control done at the same time under identical conditions.
(§3) * Weislow. O. W., Kiser, R., Fine, D., Bader, J., Shoemaker, R. H., Boyd, M. R.: New soluble-formazan assay for HIV-1 cytopathic effects: application to high-flux screening of synthetic and natural products for AIDS-antiviral activity. J. Natl. Cancer Inst. 81:577-586, 1989.
(§4) 1. The Candidate agent is dissolved in dimethyl sulfoxide (unless otherwise instructed) then diluted 1:100 in cell culture medium before preparing serial half-log10 dilutions. T4 lymphocytes (CEM cell line) are added and after a brief interval HIV-1 added, resulting in a 1:200 final dilution of the compound. Uninfected cells with the compound serve as a toxicity control, and infected and uninfected cells without compound serve as basic controls.
(§5) 2. Cultures are incubated at 37° in a 5% carbon dioxide atmosphere for 6 days.
(§6) 3. The tetrazolium salt, XTT, is added to all wells, and cultures are incubated to allow formazan color development by viable cells.
(§7) 4. Individual wells are analyzed spectrophotometrically to quantitate formazan production, and in addition are viewed microscopically for detection of viable cells and confirmation of protective activity.
(§8) 5. Drug-treated virus-infected cells are compared with drug-treated noninfected cells and with other appropriate controls (untreated infected and untreated noninfected: cells, drug-containing wells without cells, etc.) on the same plate.
(§9) 6. Data are reviewed in comparison with other tests done at the same time and a determination about activity is made.
A general note: Tetrazolium assays rely on reduction of a dye to a coloured formazan, in cell work by metabolically active cells.

The test system of series [2] is HIV. Nature of the series: Anti-HIV assays (summary statements, structure-activity trends). It is filed as cell-based.
From the text: as §1

Series [3] is described as follows: XTT toxicity control, uninfected, CEM-IW. To be noted: human, cem-iw cells, read-out: Uninfected response. Format: cell-based. On the procedure:
as §2, §3, §4, §5, §6, §7, §8, §9

Another series has as its system CEM-IW. Nature of the series: XTT toxicity control, uninfected, CEM-IW. Format: cell-based. On the procedure:
as §2, §3, §4, §5, §6, §7, §8, §9

Setting [4] is: Human immunodeficiency virus 1, read-out: MT-2 EC50, M.
[5] abbreviates: Human immunodeficiency virus 1, CEM-IW, summary table, read-out: CEM-IW EC50.
[6] abbreviates: Human immunodeficiency virus 1, MT-2, summary table, read-out: MT-2 EC50.

As usually defined, the EC50 is the concentration giving half of the maximal effect. By IC50 is commonly meant the concentration at which inhibition is half-maximal. The low end stands for inhibition by little substance, the high end for a need for much substance.

Values joined by “and” are separate entries in the source; they are usually repeats but may differ in a detail not shown here. Equal values may be shown once. Read-outs that look alike come from different tables or passages of the source.

Turning to `[O-][S+](c1ccccc1)c1ccccc1` [H H H H SO], the EC50 in the series on HIV [1] (setting [4]) amounted to 358 µM.

Regarding `O=[N+]([O-])c1ccccc1Sc1ccccc1[N+](=O)[O-]` [Compound 5], the EC50 in the series with HIV-1 (setting [5]) came to 7.87 µM; in the series with HIV [1] (setting [4]), 5.77 µM.

For `O=S(=O)(c1ccccc1)c1ccccn1` [Compound 7, phenyl 2-pyridyl sulfone], the concentration giving a half-maximal response (EC50) in the series on HIV-1 (setting [5]) amounted to 206 µM; in the series with HIV [1] (setting [6]), 75.7 µM. For the same compound, the “anti-HIV activity (in words)” value in the series on HIV [2] is recorded as “shows anti-HIV activity”.

Take `O=S(=O)(c1ccccc1)c1ccccc1` [Compound 3, diphenyl sulfone]: the EC50 with HIV [1] (setting [4]) is 77.5 µM.

In the case of `O=[N+]([O-])c1ccccc1S(=O)(=O)c1ccccc1[N+](=O)[O-]` [Compound 6, 2,2'-dinitrodiphenyl sulfone], the Conclusion entry in the series with HIV-1 (CEM-IW) is listed as “ACTIVE”. Also, in the series on HIV-1 (CEM-IW), the “TI50 (IC/EC)” value is > 2.05 × 10^+2 and > 1.75 × 10^+2 and > 1.27 × 10^+2 and > 1.62 × 10^+2. In addition, the Infected response was 94.22% of Control and 83.35% of Control and 80.76% of Control with HIV-1 (CEM-IW, 1.45 × 10^-4 Molar, 145 µM); 100.31% of Control and 95.03% of Control and 82.49% of Control and 79.91% of Control with HIV-1 (CEM-IW, 1.45 × 10^-5 Molar, 14.5 µM); 86.23% of Control and 82.50% of Control and 62.75% of Control and 68.40% of Control in the series on HIV-1 (CEM-IW, 1.45 × 10^-6 Molar, 1.45 µM); 95.59% of Control and 83.75% of Control and 82.81% of Control in the series on HIV-1 (CEM-IW, 4.58 × 10^-5 Molar, 45.8 µM); 92.81% of Control and 84.87% of Control and 80.73% of Control in the series with HIV-1 (CEM-IW, 4.59 × 10^-6 Molar, 4.59 µM); 29.70% of Control and 24.44% of Control and 37.65% of Control in the series with HIV-1 (CEM-IW, 4.60 × 10^-7 Molar, 0.46 µM). In addition, the EC50 in the series on HIV-1 (CEM-IW, infected, read-out: EC50) is 0.829 µM and 1.14 µM and 0.892 µM; in the series on HIV-1 (Human immunodeficiency virus 1, CEM-IW, infected, read-out: EC50) it was 0.706 µM; in the series with HIV-1 (Human immunodeficiency virus 1, read-out: CEM-IW EC50, M, CEM-IW, summary table), 5.44 µM; with HIV [1] (setting [4]), 0.747 µM. In addition, the viability at 145 µM in the series on HIV-1 (Human immunodeficiency virus 1, CEM-IW, 1.45 × 10^-4 Molar, read-out: Infected response) stood at 97.4%. Further, the viability at 45.8 µM in the series with HIV-1 (Human immunodeficiency virus 1, CEM-IW, 4.58 × 10^-5 Molar, read-out: Infected response) was found to be 99%. The viability at 4.59 µM in the series with HIV-1 (Human immunodeficiency virus 1, CEM-IW, 4.59 × 10^-6 Molar, read-out: Infected response) was 94%; in series [3] (4.59 × 10^-6 Molar), 90%. Moreover, in the series with HIV-1 (Human immunodeficiency virus 1, CEM-IW, 4.60 × 10^-7 Molar, read-out: Infected response), the viability at 0.46 µM came out at 42%. The viability at 14.5 µM in series [3] (1.45 × 10^-5 Molar) stood at 92.5%. For the same compound, the viability at 1.45 µM in series [3] (1.45 × 10^-6 Molar) is 87.1%. The Uninfected response in the series with CEM-IW (1.45 × 10^-4 Molar, 145 µM) is 109.82% of Control and 97.75% of Control and 89.72% of Control and 104.62% of Control; in the series on CEM-IW (1.45 × 10^-5 Molar, 14.5 µM) it was 97.21% of Control and 84.55% of Control and 104.22% of Control; with CEM-IW (1.45 × 10^-6 Molar, 1.45 µM) it was 93.92% of Control and 100.12% of Control and 105.53% of Control; in the series with CEM-IW (1.45 × 10^-7 Molar, 0.145 µM) it was 80.72% of Control and 98.46% of Control and 109.08% of Control and 105.53% of Control; in the series on CEM-IW (4.58 × 10^-5 Molar, 45.8 µM) it was 100.68% of Control and 106.72% of Control and 80.53% of Control and 105.99% of Control; in the series with CEM-IW (4.59 × 10^-6 Molar, 4.59 µM), 96.62% of Control and 82.26% of Control and 98.81% of Control. Besides, the Uninfected response with CEM-IW (4.60 × 10^-7 Molar, 0.46 µM) was 74.84% of Control and 97.86% of Control and 88.80% of Control and 107.87% of Control; in the series with CEM-IW (4.60 × 10^-8 Molar, 0.046 µM), 88.77% of Control and 104.88% of Control and 105.92% of Control and 111.46% of Control. In the series on CEM-IW (uninfected (toxicity)), this compound registered an IC50 above 145 µM. Besides, the “anti-HIV activity (in words)” value with HIV [2] was “increased potency”.

As to `O=[N+]([O-])c1ccccc1S(=O)(=O)c1ccc(Cl)cc1` [Compound 4, 1-(4-chlorophenylsulfonyl)-2-nitrobenzene], the EC50 in the series on HIV-1 (setting [5]) is 42.9 µM; in the series with HIV [1] (setting [6]), 38.2 µM.
